According to patent US20250195492A1, “USE OF IPTACOPAN FOR THE TREATMENT OF LUPUS NEPHRITIS” (Novartis AG, priority 2022, published 2025):

Key:
alternative pathway = test: Wieslab assay (least sensitive alternative pathway biomarker), FIH trial CLNP023X2101; assay type: in vivo, human; conditions: 200 mg b.i.d.
Procedure: The study will first investigate the treatment effect of iptacopan 200 mg b.i.d. on top of SoC compared to SoC alone (Part 1). This dose was chosen based on the least sensitive alternative pathway biomarker (Wieslab assay); it ensures >90% target inhibition in more than 70% of individuals, as determined from FIH trial CLNP023X2101. Dose range finding with doses between 10 to 200 mg b.i.d was performed in Phase 2 studies in IgAN, C3G and PNH.

PNH patients = test: Phase 2 studies in PNH (CLNP023X2201 add-on to eculizumab, CLNP023X2204 monotherapy); assay type: in vivo, human
patients with IgAN = test: Phase 2 study in patients with IgAN (CLNP023X2203), interim analysis; assay type: in vivo, human
patients with C3G = test: Phase 2 study in patients with C3G (CLNP023X2202), interim analysis; assay type: in vivo, human; conditions: 200 mg b.i.d.
[1] = Healthy volunteer studies CLNP023X2101 and CLNP023X1102 (SAD and MAD); assay type: in vivo
[2] = 200 mg b.i.d., add-on to eculizumab and monotherapy, majority of patients, preliminary data
[3] = 200 mg b.i.d. compared to placebo
[4] = 102 subjects, SAD 10 to 400 mg, MAD 10 to 200 mg b.i.d. for 2 weeks

## CCO[C@H]1CCN(Cc2c(OC)cc(C)c3[nH]ccc23)[C@H](c2ccc(C(=O)O)cc2)C1 [iptacopan, 4-((2S,4S)-(4-ethoxy-1-((5-methoxy-7-methyl-1H-indol-4-yl)methyl)piperidin-2-yl))benzoic acid]
Alternative pathway
  proportion of individuals with >90% target inhibition: more than 70%
Alternative pathway; reached in more than 70% of individuals
  target inhibition (Wieslab assay): > 90%
PNH patients; [2]
  LDH levels: reduction in LDH levels
  hemoglobin in the absence of RBC transfusions: improvements in hemoglobin
PNH patients; 200 mg b.i.d., preliminary data
  hemolysis: control of both intra- and extravascular hemolysis
PNH patients; both PNH studies
  safety and tolerability: overall safe and well tolerated
Patients with IgAN
  safety profile: overall well-tolerated safety profile
Patients with IgAN; [3]
  UPCR: clinically meaningful UPCR reduction
  eGFR levels: stable/improving
Patients with IgAN; at 90 days, primary endpoint
  dose-response effect on UPCR: statistically significant dose-response effect
Patients with C3G
  tolerability: well-tolerated
Patients with C3G; at 12 weeks
  eGFR: stabilization
  reduction in UPCR: 49%
[1]; [4]
  deaths, SAEs, AEs leading to study drug discontinuation: No deaths, serious adverse events (SAEs), or adverse events (AEs) leading to study drug discontinuation were observed
  tolerability: well tolerated
[1]; as reported from the healthy volunteer studies
  solubility: high
[1]; healthy volunteers, SAD/MAD
  absorption: fast
